From patent publication US20230101747A1 (Schrödinger, Inc., priority 2019, published 2023)

Experiments:
[1] = target: T1, Full length human CDC7 protein co-expressed with DBF4 (Homo sapiens, UniProt O00311); assay: CDC7 kinase biochemical assay (ADP-Glo, PDKtide substrate); conditions: 0.1 nM CDC7/DBF4, 1 uM ATP, 10 uM PDKtide, 4 h; read-out: CDC7 ADP-Glo PDKtide IC50
T1 construct: Full length human CDC7 protein co-expressed with DBF4; purchased SignalChem (China)
Outline: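 ADP-Glo luminescence measured ADP made over a 4 h reaction of 0.1 nM CDC7/DBF4 (full-length human) with 10 uM PDKtide and 1 uM ATP. Buffer was 40 mM Tris pH 7.5 with 20 mM MgCl2, 0.1 mg/ml BSA, 50 uM DTT. Inhibition normalized to DMSO and positive-control inhibitor wells.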

[2] = test system: phosphorylation of MCM2 S53 (CDC7 substrate) in colo205 cells; assay: Phosphorylated MCM2 MSD electrochemiluminescence assay; type: cell-based; conditions: Homo sapiens, COLO 205; colo205 cells, 20 h incubation; read-out: pMCM2-S53 MSD Colo205 IC50
Procedure: Phosphorylated MCM2 MSD Electrochemiluminescence Assay
The effect of CDC7 inhibitors on cellular phosphorylation of the CDC7 substrate MCM2 was determined using the following protocol:
A total of 40,000 colo205 cells in 100 uL culture medium (1640 medium+10% Fetal bovine serum+1% Penicillin-Streptomycin) were plated in 96-well cell culture plates and allowed to attach for 6 hours. 3-fold serial dilutions of test compounds were prepared in completed PBS at 25× final concentration and 4 uL of each were added to the cells and incubated for 20 hours at 37° C., 5% CO2. Each concentration was tested in duplicate. After the 20 h incubation, cells were washed with 150 uL PBS and lysed with 40 uL MSD lysis buffer (obtained from Meso Scale Diagnostics) supplied with 1× complete ULTRA cocktail inhibitor (obtained from Roche). To detect phosphorylation of MCM2 S53, 30 μL of capture antibody solution (obtained from Abnova, catalog number H00004171-M01, 1:500) was added to each well of MULTI-ARRAY 96-well High Bind Plate, and incubated overnight. The antibody solution was removed, wells blocked with BSA solution and plates washed, followed by addition of 30 ul of cell lysate per well. After 2 h incubation, plates were washed. 30 μL of 1× detection antibody solution (obtained from Abcam, catalog number ab109133, 1:1000) was then added to each well and incubate for 1 hour. Plates were washed and 30 μL of 1× secondary antibody solution (obtained from MSD, catalog number R32AB-1, 1:5000) was added to each well and incubate for 1 hour. Plates were washed and 150 μL of 1× Read Buffer T was added to each well of the MSD plate. The electrochemiluminescence signal was measured on a MESO SECTOR S600 plate reader. The percentage of remaining phosphorylated MCM2 signal was calculated following the equation below.
HC (high control): Cells treated with DMSO Cpds: Cells treated with test compounds LC (low control): Cells treated with positive control CDC7 inhibitor

T1 sequence (O00311 whole entry): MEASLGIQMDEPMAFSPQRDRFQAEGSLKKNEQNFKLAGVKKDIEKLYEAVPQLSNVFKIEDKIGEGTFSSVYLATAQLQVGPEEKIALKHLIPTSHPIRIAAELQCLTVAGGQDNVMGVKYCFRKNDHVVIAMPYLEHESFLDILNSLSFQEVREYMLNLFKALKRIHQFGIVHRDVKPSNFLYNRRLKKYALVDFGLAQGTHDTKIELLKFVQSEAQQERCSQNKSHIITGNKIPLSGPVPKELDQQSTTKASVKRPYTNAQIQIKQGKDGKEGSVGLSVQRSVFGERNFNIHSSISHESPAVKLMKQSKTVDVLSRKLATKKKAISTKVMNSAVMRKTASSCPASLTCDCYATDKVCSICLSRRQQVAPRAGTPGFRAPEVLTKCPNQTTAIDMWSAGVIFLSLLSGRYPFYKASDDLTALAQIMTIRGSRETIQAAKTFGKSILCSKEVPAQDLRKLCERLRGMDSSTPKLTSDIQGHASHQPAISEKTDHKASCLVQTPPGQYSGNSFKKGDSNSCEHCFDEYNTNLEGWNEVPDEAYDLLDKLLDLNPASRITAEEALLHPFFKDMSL
T1 sequence (Q9UBU7 whole entry partner): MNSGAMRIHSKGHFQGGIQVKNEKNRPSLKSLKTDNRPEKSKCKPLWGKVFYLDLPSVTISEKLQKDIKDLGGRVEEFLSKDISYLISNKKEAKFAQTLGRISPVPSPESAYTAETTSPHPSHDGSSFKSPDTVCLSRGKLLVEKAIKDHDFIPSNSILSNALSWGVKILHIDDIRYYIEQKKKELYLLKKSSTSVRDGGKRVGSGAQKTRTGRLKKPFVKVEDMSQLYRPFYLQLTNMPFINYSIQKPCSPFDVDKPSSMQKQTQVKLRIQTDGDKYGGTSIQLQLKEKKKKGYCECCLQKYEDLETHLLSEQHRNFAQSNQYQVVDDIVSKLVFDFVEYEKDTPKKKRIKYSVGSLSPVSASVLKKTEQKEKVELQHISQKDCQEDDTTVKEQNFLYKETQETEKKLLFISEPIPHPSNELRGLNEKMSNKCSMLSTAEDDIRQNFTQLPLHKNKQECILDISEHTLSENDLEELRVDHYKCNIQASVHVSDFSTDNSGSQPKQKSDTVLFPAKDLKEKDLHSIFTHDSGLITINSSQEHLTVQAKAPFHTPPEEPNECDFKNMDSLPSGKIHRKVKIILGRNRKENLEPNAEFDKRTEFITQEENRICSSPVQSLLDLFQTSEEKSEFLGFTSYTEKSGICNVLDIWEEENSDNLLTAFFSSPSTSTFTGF

Row | SMILES | IC50 [1] | IC50 [2]
1 | C[C@@H]1CN2CC(F)(F)Oc3c(-c4cn[nH]c4)sc(c32)C(=O)N1 [Compound 93, (10R)-6,6-difluoro-10-methyl-3-(1H-pyrazol-4-yl)-5-oxa-2-thia-8,11-diazatricyclo [6.4.1.0^443] trideca-1(13), 3-dien-12-one] | < 1 nM | 28 nM
2 | O=C1N[C@H](C2CCC2)CN2CC(F)(F)Oc3c(-c4cn[nH]c4)sc1c32 [Compound 100, (R)-7-cyclobutyl-4,4-difluoro-2-(1H-pyrazol-4-yl)-4,5,7,8-tetrahydro-3-oxa-1-thia-5a,8-diazabenzo[cd]azulen-9(6H)-one] | < 1 nM | 23 nM
3 | O=C1N[C@@H](Cn2cccn2)CN2CC(F)(F)Cc3c(-c4cn[nH]c4)sc1c32 [Compound 102, (R)-7-((1H-pyrazol-1-yl)methyl)-4,4-difluoro-2-(1H-pyrazol-4-yl)-4,5,7,8-tetrahydro-3H-1-thia-5a,8-diazabenzo[cd]azulen-9(6H)-one] | < 1 nM | 66 nM
4 | COC[C@H]1CN2CC(F)(F)Cc3c(-c4cn[nH]c4)sc(c32)C(=O)N1 [Compound 103, (10R)-6,6-difluoro-10-(methoxymethyl)-3-(1H-pyrazol-4-yl)-2-thia-8,11-diazatricyclo [6.4.1.0^4,13]trideca-1(13),3-dien-12-one] | < 1 nM | 15 nM
5 | CC(C)(O)C[C@@H]1CNC(=O)c2sc(-c3cn[nH]c3)c3c2N1CCO3 [Compound 104, (R)-6-(2-hydroxy-2-methylpropyl)-2-(1H-pyrazol-4-yl)-4,5,7,8-tetrahydro-3-oxa-1-thia-5a,8-diazabenzo[cd]azulen-9(6H)-one] | < 1 nM | 150 nM
6 | COC[C@@H]1CN2CC(F)(F)Cc3c(-c4cn[nH]c4)sc(c32)C(=O)N1 [Compound 115, (S)-4,4-difluoro-7-(methoxymethyl)-2-(1H-pyrazol-4-yl)-4,5,7,8-tetrahydro-3H-1-thia-5a,8-diazabenzo[cd]azulen-9(6H)-one] | < 1 nM | 218 nM
7 | O=C1N[C@@H]([C@@H]2CC(F)(F)CN2)CN2CC(F)(F)Cc3c(-c4cn[nH]c4)sc1c32 [Compound 135, (10R)-10-[(2S)-4,4-difluoropyrrolidin-2-yl]-6,6-difluoro-3-(1H-pyrazol-4-yl)-2-thia-8,11-diazatricyclo[6.4.1.04,13]trideca-1(13),3-dien-12-one] | < 1 nM | 27 nM
8 | CN1CC(F)(F)C[C@H]1[C@H]1CN2CC(F)(F)Cc3c(-c4cn[nH]c4)sc(c32)C(=O)N1 [Compound 136, (R)-7-((S)-4,4-difluoro-1-methylpyrrolidin-2-yl)-4,4-difluoro-2-(1H-pyrazol-4-yl)-4,5,7,8-tetrahydro-3H-1-thia-5a,8-diazabenzo[cd]azulen-9(6H)-one] | < 1 nM | 16 nM
9 | O=C1N[C@@H](COC(F)F)CN2CC(F)(F)Cc3c(-c4cn[nH]c4)sc1c32 [Compound 142, (R)-7-((difluoromethoxy)methyl)-4,4-difluoro-2-(1H-pyrazol-4-yl)-4,5,7,8-tetrahydro-3H-1-thia-5a,8-diazabenzo[cd]azulen-9(6H)-one] | < 1 nM | 5 nM
